Test results taken from patent publication US8685974B2 (Bayer CropScience AG, priority 2009, dated 2014).
Where two headings read alike, the source gives them in different places. Marks after values point to notes of the source that are not given here.

How the values were obtained:
[1] = test system: Alternaria solani; assay: Alternaria test (tomato) / protective; type: in vivo; conditions: 500 ppm active compound, protective spray, evaluated 7 days after inoculation
Summary of the method: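 Young tomato plants sprayed protectively with compound formulated in DMF with alkylaryl polyglycol ether emulsifier and diluted in water to the application rate. After inoculation, plants held at 96% rel. humidity and 20° C. Efficacy scored 7 days post-inoculation: 0% equals untreated control, 100% no infection.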

[2] = test system: Leptosphaeria nodorum; assay: Leptosphaeria nodorum test (wheat) / protective; type: in vivo; conditions: 500 ppm active compound, protective spray, evaluated 7-9 days after inoculation
Experimental: Leptosphaeria nodorum Test (Wheat)/Protective
Solvent: 49 parts by weight of N,N-dimethylformamide
Emulsifier: 1 part by weight of alkylaryl polyglycol ether
To produce a suitable preparation of active compound, 1 part by weight of active compound is mixed with the stated amounts of solvent and emulsifier, and the concentrate is diluted with water to the desired concentration.
To test for protective activity, young wheat plants are sprayed with the preparation of active compound at the stated application rate. […] The plants are then placed in a greenhouse at 90% rel. atmospheric humidity and a temperature of 22° C.
Evaluation is carried out 7-9 days after the inoculation. 0% means an efficacy which corresponds to that of the control, whereas an efficacy of 100% means that no infection is observed.

[3] = test system: Pyrenophora teres; assay: In vivo test on Pyrenophora teres (barley net blotch); conditions: dose of 500 ppm; barley plants; grading 12 days after contamination
Experimental: In Vivo Test on Pyrenophora teres (Barley Net Blotch)
The active ingredients tested are prepared by homogenization in a mixture of acetone/Tween/DMSO, then diluted with water to obtain the desired active material concentration.
Barley plants (Plaisant variety), sown on a 50/50 peat soil-pozzolana substrate in starter cups and grown at 12° C., are treated at the 1-leaf stage (10 cm tall) by spraying with the active ingredient prepared as described above.
Plants, used as controls, are treated with an aqueous solution not containing the active material.
After 24 hours, the plants are contaminated by spraying them with an aqueous suspension of Pyrenophora teres spores (12,000 spores per ml). The spores are collected from a 12-day-old culture. The contaminated barley plants are incubated for 24 hours at about 20° C. and at 100% relative humidity, and then for 12 days at 80% relative humidity.
Grading is carried out 12 days after the contamination, in comparison with the control plants.

[4] = test system: Fusarium graminearum; type: cell-based; conditions: 50 μM; for % Inhibition of DON/AcDON at 50 μM: 7 days at 28° C.

SMILES	efficacy [1] [%]	log p (pH 2.3)	efficacy [2] [%]	log p (pH 2.7)	log p (pH 7.8)	protection [3] [%]	% Inhibition of fungal growth at 50 μM [4] [%]	% Inhibition of DON/AcDON at 50 μM [4] [%]	logP value of the minor isomer (pH 2.7)
CC(=O)Nc1cc(-c2cn(CC(C)C)nc2-c2ccc(Cl)s2)cc[n+]1[O-] [Example 80]	94	2.86^[a]	70	–	–	–	–	–	–
CC(C)Cn1cc(-c2ccnc(N)n2)c(-c2ccc(Cl)s2)n1 [Example 95]	70	2.35^[a]	80	–	–	–	–	–	–
COc1ccc(Cn2cc(-c3ccncc3)c(-c3ccc(Cl)s3)n2)cc1 [Example 104]	–	–	80	2.74^[b]	–	–	–	–	–
Cc1c(-c2ccncc2)c(-c2ccc(Cl)s2)nn1C(C)C [Example 145]	100	–	95	2.07^[b]	3.8^[c];	100	–	–	–
CCn1nc(-c2ccc(Cl)s2)c(-c2ccncc2)c1C [Example 146]	95	–	95	1.61^[b]	3.08^[c];	100	–	–	–
CCC(=O)Nc1cc(-c2c(-c3ccc(Cl)s3)nn(C(C)C)c2C)ccn1 [Example 168]	90	–	90	3.34^[b]	3.76^[c];	90	–	–	–
CCC(=O)Nc1cc(-c2c(-c3ccc(Cl)s3)nn(CC)c2C)ccn1 [Example 169]	95	–	80	2.71^[b]	3.1^[c];	95	–	–	–
CCC(=O)Nc1cc(-c2c(-c3ccc(Cl)s3)nn(C)c2C)ccn1 [Example 170]	90	–	90	2.32^[b]	2.68^[c];	80	–	–	–
CC(=O)N(C(C)=O)c1nccc(-c2cn(C(C)C)nc2-c2ccc(Cl)s2)n1 [Example 171]	–	3.33^[a]	89	–	–	95	–	–	–
CCC(=O)Nc1nccc(-c2cn(C(C)C)nc2-c2ccc(Cl)s2)n1 [Example 172]	–	3.04^[a]	89	–	–	100	–	–	–
CCC(C)n1cc(-c2ccnc(NC(=O)C(C)C)n2)c(-c2ccc(Cl)s2)n1 (centres unmarked) [Example 173]	–	3.72^[a]	89	–	–	95	–	–	–
CCC(=O)Nc1cc(-c2cn(C(C)C)nc2-c2cccs2)ccn1 [Example 175]	80	–	70	2.01^[b]	2.61^[c];	90	–	–	–
CC(C)n1cc(-c2ccnc(NC3COC3)n2)c(-c2ccc(Cl)s2)n1 [Example 179]	80	2.7^[a]	80	–	–	90	–	–	–
C#CCNc1nccc(-c2cn(C(C)C)nc2-c2ccc(Cl)s2)n1 [Example 180]	–	3.25^[a]	70	–	–	80	–	–	–
CC(C)Nc1nccc(-c2cn(C(C)C)nc2-c2ccc(Cl)s2)n1 [Example 181]	–	2.82^[a]	70	–	–	80	–	–	–
CCC(=O)Nc1nccc(-c2cn(C(C)CC)nc2-c2ccc(Cl)s2)n1 (centres unmarked) [Example 190]	80	3.37^[a]	70	–	–	95	–	–	–
CCC(=O)Nc1cc(-c2cn(C(C)CC)nc2-c2ccc(Cl)s2)ccn1 (centres unmarked) [Example 225]	95	–	70	3.19^[b]	–	95	87	99	–
CCC(C)n1cc(-c2ccnc(NC(=O)C3CC3)c2)c(-c2ccc(Cl)s2)n1 (centres unmarked) [Example 226]	90	–	80	3.35^[b]	–	100	93	99	–

SMILES	efficacy [1] [%]	log p (pH 2.3)	efficacy [2] [%]	log p (pH 2.7)	log p (pH 7.8)	protection [3] [%]	% Inhibition of fungal growth at 50 μM [4] [%]	% Inhibition of DON/AcDON at 50 μM [4] [%]	logP value of the minor isomer (pH 2.7)
CCC(C)n1cc(-c2ccnc(NC(=O)C(C)C)c2)c(-c2ccc(Cl)s2)n1 (centres unmarked) [Example 234]	90	–	80	3.63^[b]	–	95	45	96	–
CC(C)n1cc(-c2ccnc(NC(=O)C3CCC3)c2)c(-c2ccc(Cl)s2)n1 [Example 243]	90	–	90	3.37^[b]	–	95	31	99	–
CCC(=O)Nc1cc(-c2cn(C(C)C)nc2-c2ccc(Cl)s2)ccn1 [Example 246]	95	–	90	2.78^[b]	–	100	91	99	–
CC(C)n1cc(-c2ccnc(NC(=O)C3CC3)c2)c(-c2ccc(Cl)s2)n1 [Example 247]	95	–	80	2.94^[b]	–	100	91	99	–
CC(C)n1cc(-c2ccnc(NC(=O)N(C)C)c2)c(-c2ccc(Cl)s2)n1 [Example 248]	90	–	90	1.97^[b]	–	100	–	–	–
CCC(C)C(=O)Nc1cc(-c2cn(C(C)C)nc2-c2ccc(Cl)s2)ccn1 (centres unmarked) [Example 249]	95	–	80	3.61^[b]	–	95	11	99	–
CCC(C)C(=O)Nc1cc(-c2cn(CC)nc2-c2ccc(Cl)s2)ccn1 (centres unmarked) [Example 252]	95	–	70	3.13^[b]	–	100	99	99	–
CC(=O)Nc1cc(-c2cn(C(C)C)nc2-c2ccc(Cl)s2)ccn1 [Example 256]	100	–	80	2.45^[b]	–	100	100	99	–
CC(C)C(=O)Nc1cc(-c2cn(C(C)C)nc2-c2ccc(Cl)s2)ccn1 [Example 257]	95	–	90	3.21^[b]	–	95	81	99	–
CC(C)CC(=O)Nc1cc(-c2cn(C(C)C)nc2-c2ccc(Cl)s2)ccn1 [Example 258]	95	–	70	3.63^[b]	–	100	54	94	–
CCn1cc(-c2ccnc(NC(=O)C3CCC3)c2)c(-c2ccc(Cl)s2)n1 [Example 269]	–	–	70	2.92^[b]	–	80	58	87	–
Cn1cc(-c2ccnc(NC(=O)Cc3ccccc3)c2)c(-c2ccc(Cl)s2)n1 [Example 277]	90	–	70	3.06^[b]	–	90	–	–	–
CCC(C)C(=O)Nc1cc(-c2cn(C)nc2-c2ccc(Cl)s2)ccn1 (centres unmarked) [Example 280]	90	–	80	2.71^[b]	–	90	–	–	–
CCC(C)n1cc(-c2ccnc(Cl)c2)c(-c2ccc(Cl)s2)n1 (centres unmarked) [Example 318]	–	–	70	4.89^[b]	–	–	–	–	–
FC(F)Cn1cc(-c2ccncc2)c(-c2ccc(Br)s2)n1 [Example 384]	94	–	90	1.67^[b]	–	–	100	99	(1.51)
CC1(Cn2cc(-c3ccncc3)c(-c3ccc(Br)s3)n2)CC1(Cl)Cl (centres unmarked) [Example 386]	89	–	80	2.75^[b]	–	–	0	99	(2.50)
FCCn1cc(-c2ccncc2)c(-c2ccc(Br)s2)n1 [Example 388]	100	–	80	1.49^[b]	–	–	100	99	(1.34)
CCC(CC)n1cc(-c2ccncc2)c(-c2ccc(Br)s2)n1 [Example 392]	100	–	70	2.39^[b]	–	–	97	99	(2.22)
